The text below walks through data of the Kinase Knowledgebase extract (Sharma et al. 2016).

As usually defined, the IC50 is the concentration that gives 50% inhibition. A low value points to higher potency.

Where only a bound is given, the exact number is not on record here.

The target in this assay is PIK3CG (human) (UniProt P48736). In words: Inhibition of PIK3CG Kinase Activity.
Sequence of PIK3CG (human) (P48736 whole entry, looked up): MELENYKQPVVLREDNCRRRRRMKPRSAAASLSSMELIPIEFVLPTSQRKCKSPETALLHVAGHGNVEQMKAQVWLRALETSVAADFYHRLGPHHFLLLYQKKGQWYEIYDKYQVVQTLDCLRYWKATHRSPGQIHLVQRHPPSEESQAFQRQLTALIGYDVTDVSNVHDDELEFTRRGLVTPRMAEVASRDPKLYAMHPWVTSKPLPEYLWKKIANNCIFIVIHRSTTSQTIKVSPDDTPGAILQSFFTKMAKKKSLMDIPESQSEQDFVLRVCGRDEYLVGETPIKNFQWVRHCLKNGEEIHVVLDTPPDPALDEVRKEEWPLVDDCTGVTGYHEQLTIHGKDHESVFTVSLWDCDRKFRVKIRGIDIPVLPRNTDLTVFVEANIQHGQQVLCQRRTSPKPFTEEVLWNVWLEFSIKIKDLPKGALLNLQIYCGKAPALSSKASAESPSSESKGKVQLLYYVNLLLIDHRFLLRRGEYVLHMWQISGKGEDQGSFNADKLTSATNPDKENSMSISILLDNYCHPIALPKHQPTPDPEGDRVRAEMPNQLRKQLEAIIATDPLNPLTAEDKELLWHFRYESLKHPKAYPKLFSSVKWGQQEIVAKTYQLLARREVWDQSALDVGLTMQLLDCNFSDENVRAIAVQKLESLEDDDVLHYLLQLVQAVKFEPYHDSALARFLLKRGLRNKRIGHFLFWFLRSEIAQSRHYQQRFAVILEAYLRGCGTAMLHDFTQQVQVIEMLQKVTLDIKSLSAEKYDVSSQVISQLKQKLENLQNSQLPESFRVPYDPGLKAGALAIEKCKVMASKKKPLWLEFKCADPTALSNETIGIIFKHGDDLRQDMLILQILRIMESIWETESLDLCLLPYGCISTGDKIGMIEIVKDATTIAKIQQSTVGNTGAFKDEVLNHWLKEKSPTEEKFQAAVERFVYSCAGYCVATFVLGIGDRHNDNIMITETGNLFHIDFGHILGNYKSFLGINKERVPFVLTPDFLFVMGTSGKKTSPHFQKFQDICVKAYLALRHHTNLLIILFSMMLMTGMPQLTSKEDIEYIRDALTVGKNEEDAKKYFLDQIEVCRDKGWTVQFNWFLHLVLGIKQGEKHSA
`CC(=O)Nc1nc2c(s1)-c1c(c(C3CC3)nn1C1CCC(C(=O)NC3CCCCC3)CC1)CC2` (configuration not stated): the IC50 is less than 600 nM.
`COc1cc(-n2nc(C3CC3)c3c2-c2sc(NC(C)=O)nc2CC3)ccc1C(=O)N1CCC(N(C)C2CCCC2)CC1` yielded an IC50 of less than 600 nM.
To `CC(=O)Nc1nc2c(s1)-c1c(c(C3CC3)nn1-c1ccc(C(=O)N(C)[C@H]3CC[C@@H](N4CCCC4)CC3)cc1C)CC2` belongs less than 600 nM; to `CC(=O)Nc1nc2c(s1)-c1c(c(C3CC3)nn1-c1ccc(C(=O)N[C@H]3CC[C@@H](N4CCOCC4)CC3)cc1Cl)CC2`, less than 600 nM; to `CC(=O)Nc1nc2c(s1)-c1c(c(C3CC3)nn1-c1ccc(C(=O)NC3CCN(CC4CCCC4)CC3)c(Cl)c1)CC2`, less than 600 nM.
As to `CC(=O)Nc1nc2c(s1)-c1c(c(C3CC3)nn1-c1ccc(C(=O)N(C)[C@H]3CC[C@@H](N4CCCC4)CC3)cc1F)CC2`, the IC50 was less than 600 nM.
To `CC(=O)Nc1nc2c(s1)-c1c(c(C3CC3)nn1-c1ccc(NCC3CCN(C)CC3)cc1Cl)CC2` belongs less than 600 nM.
Consider `COc1cc(-n2nc(C3CC3)c3c2-c2sc(NC(C)=O)nc2CC3)ccc1C(=O)N(C)C1CCC(N2CCCC2)CC1` (configuration not stated), for which the half-maximal inhibitory concentration (IC50) is less than 600 nM.
To `CC(=O)Nc1nc2c(s1)-c1c(c(C3CC3)nn1-c1ccc(CC(N)=O)cc1Cl)CC2` belongs less than 600 nM; to `CC(=O)Nc1nc2c(s1)-c1c(c(C3CC3)nn1-c1ccc(C(=O)N[C@@H]3CCN(C4CCCCC4)C3)cc1C)CC2`, less than 600 nM; to `CC(=O)Nc1nc2c(s1)-c1c(c(C3CC3)nn1-c1ccc(C(=O)N[C@@H]3CCN(CC4CCCC4)C3)c(Cl)c1)CC2`, less than 600 nM.
To `CCCN1CCC(CNc2ccc(-n3nc(C4CC4)c4c3-c3sc(NC(C)=O)nc3CC4)c(Cl)c2)CC1` belongs less than 600 nM; to `CCCN1CCC(NC(=O)c2ccc(-n3nc(C4CC4)c4c3-c3sc(NC(C)=O)nc3CC4)c(F)c2)CC1`, less than 600 nM; to `CC(=O)Nc1nc2c(s1)-c1c(c(C3CC3)nn1-c1ccc(C(=O)N(C)C3CCN(C4CCCC4)C3)c(Cl)c1)CC2` (configuration not stated), less than 600 nM.
`CC(=O)Nc1nc2c(s1)-c1c(c(C3CC3)nn1-c1ccccc1Cl)CC2`: the IC50 was less than 600 nM.
To `CC(=O)Nc1nc2c(s1)-c1c(c(C3CC3)nn1-c1ccc(C(=O)N(C)C3CCN(C4CCCC4)CC3)cc1Cl)CC2` belongs less than 600 nM; to `CC(=O)Nc1nc2c(s1)-c1c(c(C3CC3)nn1-c1ccc(C(=O)N[C@@H]3CCN(C4CCCCC4)C3)c(C)c1)CC2`, less than 600 nM.
In turn, `CC(=O)Nc1nc2c(s1)-c1c(c(C3CC3)nn1C1CCN(C(=O)N3CCC(N4CCCC4)CC3)CC1)CC2` came in with an IC50 of less than 600 nM.
To `CC(=O)Nc1nc2c(s1)-c1c(c(C3CC3)nn1-c1ccc(C(=O)NC3CCN(CC4CCCCC4)CC3)c(F)c1)CC2` belongs less than 600 nM; to `COc1cc(-n2nc(C3CC3)c3c2-c2sc(NC(C)=O)nc2CC3)ccc1C(=O)NC1CCN(C2CCCC2)CC1`, less than 600 nM; to `CC(=O)Nc1nc2c(s1)-c1c(c(C3CC3)nn1-c1ccc(C(=O)N(C)[C@H]3CC[C@@H](N(C)CC4CC4)CC3)c(C)c1)CC2`, less than 600 nM.
On to `CC(=O)Nc1nc2c(s1)-c1c(c(C3CC3)nn1-c1ccc(C(=O)N[C@@H]3CN4CCC3CC4)c(Cl)c1)CC2`, for which the IC50 was less than 600 nM.
To `CC(=O)Nc1nc2c(s1)-c1c(c(C3CCCC3)nn1-c1ccc(C(=O)N[C@H]3CC[C@@H](N4CCCCC4)CC3)cc1Cl)CC2` belongs less than 600 nM; to `CC(=O)Nc1nc2c(s1)-c1c(c(C3CCC3)nn1-c1ccc(C(=O)N(C)[C@H]3CC[C@@H](N4CCCC4)CC3)cc1Cl)CC2`, less than 600 nM; to `CC(=O)Nc1nc2c(s1)-c1c(c(C3CC3)nn1-c1ccc(C(=O)NC3CCN(C4CCOCC4)CC3)c(F)c1)CC2`, less than 600 nM.
In the case of `CC(=O)Nc1nc2c(s1)-c1c(c(C3CC3)nn1-c1ccc(C(=O)N(C)[C@H]3CC[C@@H](N4CCCCC4)CC3)c(Cl)c1)CC2`, the half-maximal inhibitory concentration (IC50) was less than 600 nM.
To `CCN(C(=O)c1ccc(-n2nc(C3CC3)c3c2-c2sc(NC(C)=O)nc2CC3)c(C)c1)[C@H]1CC[C@@H](N2CCCC2)CC1` belongs less than 600 nM.
